Test results reported in patent US8889699B2, “5-fluorouracil derivative” (Delta-Fly Pharma, Inc., priority 2009, dated 2014).
Where two headings read alike, the source gives them in different places.

Experiments:
[1] = target: T1, DPD (Rattus norvegicus, UniProt O89000); assay: DPD inhibitory action in vitro (enzyme reaction, tritium-labeled 5-FU as substrate); assay type: biochemical
T1 construct: the obtained supernatant was used as a DPD enzyme solution or an OPRT enzyme solution; from tissue; host or cells: liver of 8-week old SD rat; 105,000 g supernatant of homogenate
T1 sequence (O89000 1-1025): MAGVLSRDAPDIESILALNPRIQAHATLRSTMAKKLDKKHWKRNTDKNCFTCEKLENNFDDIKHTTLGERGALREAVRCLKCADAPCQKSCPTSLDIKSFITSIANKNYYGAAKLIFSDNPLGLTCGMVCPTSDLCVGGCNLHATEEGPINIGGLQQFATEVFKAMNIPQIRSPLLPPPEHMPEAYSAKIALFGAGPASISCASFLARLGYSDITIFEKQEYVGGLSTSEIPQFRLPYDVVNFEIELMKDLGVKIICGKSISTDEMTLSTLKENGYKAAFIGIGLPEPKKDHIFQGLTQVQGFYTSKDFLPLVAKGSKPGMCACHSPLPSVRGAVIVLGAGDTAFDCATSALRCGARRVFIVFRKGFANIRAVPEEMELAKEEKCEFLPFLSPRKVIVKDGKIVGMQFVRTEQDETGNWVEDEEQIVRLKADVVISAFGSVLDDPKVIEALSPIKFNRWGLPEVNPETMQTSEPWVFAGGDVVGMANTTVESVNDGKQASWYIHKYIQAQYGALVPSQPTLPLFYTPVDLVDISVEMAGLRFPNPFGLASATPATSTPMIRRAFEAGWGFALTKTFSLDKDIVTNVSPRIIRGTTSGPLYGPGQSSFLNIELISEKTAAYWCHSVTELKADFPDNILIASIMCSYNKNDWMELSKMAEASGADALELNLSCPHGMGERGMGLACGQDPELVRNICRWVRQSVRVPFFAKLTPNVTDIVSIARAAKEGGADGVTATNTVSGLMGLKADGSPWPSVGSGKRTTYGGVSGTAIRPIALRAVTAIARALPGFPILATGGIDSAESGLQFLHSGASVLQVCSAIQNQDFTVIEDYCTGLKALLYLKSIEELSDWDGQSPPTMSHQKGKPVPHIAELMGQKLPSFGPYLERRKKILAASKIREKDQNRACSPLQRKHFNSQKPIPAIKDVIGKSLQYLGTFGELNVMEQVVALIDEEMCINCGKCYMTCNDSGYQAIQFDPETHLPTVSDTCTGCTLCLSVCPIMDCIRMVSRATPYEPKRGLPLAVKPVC
Method: The resulting product was diluted to concentrations of 1 mM, 100 μM, 10 μM, and 1 μM with a 10 mM potassium phosphate buffer solution (pH 6.0), thereby obtaining Test Liquids 1. The obtained Test Liquids 1 were separately added to the enzyme reaction solution described below to give final concentrations of 200 μM, 20 μM, 2 μM, and 0.2 μM. • (b) Test liquid preparation (2): As a DPD inhibitor, 5-chloro-2,4-dihydroxypyridine (CDHP; gimeracil) was dissolved to a concentration of 10 mM in a 10 mM potassium phosphate buffer solution (pH 6.0). The resulting product was diluted to concentrations of 1 mM, 100 μM, 10 μM, and 1 μM, thereby obtaining Test Liquids 2. The obtained Test Liquids 2 were separately added to the enzyme reaction solution to give final concentrations of 200 μM, 20 μM, 2 μM, and 0.2 μM. • (c) Test liquid preparation (3): As an OPRT inhibitor, citrazinic acid (Citra. A.) was dissolved to a concentration of 10 mM in 20 mM trishydroxyaminomethane-hydrochloric buffer solution (pH 8.0). Thereafter, the resulting product was diluted to concentrations of 1 mM, 100 μM, and 10 μM with a 10 mM potassium phosphate buffer solution, thereby obtaining Test Liquids (3). The obtained Test Liquids 3 were separately added to the enzyme reaction solution to give final concentrations of 200 μM, 20 μM, and 2 μM. • (d) Preparation of enzyme solution: The liver of an 8-week old SD rat was used as a DPD enzyme source, while human tumor cells that had been transplanted into a nude mouse and proliferated therein were used as an OPRT enzyme source. Specifically, immediately after a rat liver or successively-transplanted human tumor cells were extracted, a 50-mM tris-hydrochloric acid buffer solution (pH 8.0) containing 0.25 M saccharose, 5 mM magnesium chloride, and 1 mM dithreitol was added thereto to a concentration of 25% (w/v) and homogenized. Thereafter, ultracentrifugation was performed at 105,000 g for 60 minutes, and the obtained supernatant was used as a DPD enzyme solution or an OPRT enzyme solution. • (e) Enzyme reaction: A DPD enzyme reaction was carried out in accordance with the method of Tatsumi et al. (Gann, 78: 748-755 (1987)) using 5-FU labeled with tritium as a substrate. An OPRT enzyme reaction was carried out in accordance with the method of Shirasaka et al. (Cancer Res., 53: 4004-4009 (1993)) using 5-FU labeled with tritium as a substrate. Then, the activity of a control group (with no test compound) and test compound groups was measured. The percent inhibition of the test compound relative to DPD or OPRT was calculated using the following formula: [1-(the enzyme activity with the test compound/the enzyme activity of the control group)]×100(%).
The resulting product was diluted to concentrations of 1 mM, 100 μM, 10 μM, and 1 μM with a 10 mM potassium phosphate buffer solution (pH 6.0), thereby obtaining Test Liquids 1. The obtained Test Liquids 1 were separately added to the enzyme reaction solution described below to give final concentrations of 200 μM, 20 μM, 2 μM, and 0.2 μM. • (b) Preparation of enzyme solution: The liver of an 8-week old SD rat was used as a DPD enzyme source, while human tumor cells that had been transplanted into a nude mouse and proliferated therein were used as an OPRT enzyme source. Specifically, immediately after a rat liver or successively-transplanted human tumor cells were extracted, a 50-mM tris-hydrochloric acid buffer solution (pH 8.0) containing 0.25 M saccharose, 5 mM magnesium chloride, and 1 mM dithreitol was added thereto to a concentration of 25% (w/v) and homogenized. Thereafter, ultracentrifugation was performed at 105,000 g for 60 minutes, and the obtained supernatant was used as a DPD enzyme solution or an OPRT enzyme solution. • (c) Enzyme reaction: A DPD enzyme reaction was carried out in accordance with the method of Tatsumi et al. (Gann, 78: 748-755 (1987)) using 5-FU labeled with tritium as a substrate. […]

[2] = target: T1, DPD; assay: as above; assay type: biochemical; details: Conc. 0.02 μM; Table 5
[3] = 0.2 μM, Table 2, read-out: DPD Inhibition (%)
[4] = 2 μM, Table 2, read-out: DPD Inhibition (%)

Compound: CCOCn1cc(F)c(=O)n(C(=O)c2cccc(C(=O)Oc3cc(OC(=O)c4cc(O)nc(O)c4)c(Cl)cn3)c2)c1=O [Compound I-2, 3-{3-[4-(2,6-dihydroxyisonicotinoyloxy)-5-chloro-2-pyridyloxycarbonyl]benzoyl}-1-ethoxymethyl-5-fluorouracil]
- DPD Inhibitory Activity: Activity ([1]; Conc. 0.2 μM, Table 1): 0.613 nmol/mL/min
- inhibition at 0.2 µM ([1]; Conc. 0.2 μM, Table 1, read-out: DPD Inhibitory Activity: Inhibition): 39.2%
- DPD Inhibitory Activity: Activity ([1]; Conc. 2 μM, Table 1): 0.157 nmol/mL/min
- inhibition at 2 µM ([1]; Conc. 2 μM, Table 1, read-out: DPD Inhibitory Activity: Inhibition): 84.4%
- DPD Inhibitory Activity: Activity ([1]; Conc. 20 μM, Table 1): 0.075 nmol/mL/min
- inhibition at 20 µM ([1]; Conc. 20 μM, Table 1): 92.6%
- DPD Inhibitory Activity: Activity ([1]; Conc. 200 μM, Table 1): 0.100 nmol/mL/min
- inhibition at 200 µM ([1]; Conc. 200 μM, Table 1): 90%

Compound: CCOCn1cc(F)c(=O)n(C(=O)c2cccc(C(=O)Oc3cc(OC(=O)c4cc(OC(=O)C5CCCC5)nc(OC(=O)C5CCCC5)c4)c(Cl)cn3)c2)c1=O [Compound I-9, 3-{3-[4-(2,6-dicyclopentanecarbonyloxyisonicotinoyloxy)-5-chloro-2-pyridyloxycarbonyl]benzoyl}-1-ethoxymethyl-5-fluorouracil]
- inhibition at 0.2 µM [1, 3]: 45.7%
- inhibition at 2 µM [1, 4]: 74.6%

Compound: CCOCn1cc(F)c(=O)n(C(=O)c2cccc(C(=O)Oc3cc(OC(=O)c4cc(OC(C)=O)nc(OC(C)=O)c4)c(Cl)cn3)c2)c1=O [Compound I-10, 3-{3-[4-(2,6-diacetyloxyisonicotinoyloxy)-5-chloro-2-pyridyloxycarbonyl]benzoyl}-1-ethoxymethyl-5-fluorouracil]
- inhibition at 0.2 µM [1, 3]: 43.9%
- inhibition at 2 µM [1, 4]: 77.2%

Compound: CCOCn1cc(F)c(=O)n(C(=O)c2cccc(C(=O)Oc3cc(OC(=O)c4cc(OC(=O)CC)nc(OC(=O)CC)c4)c(Cl)cn3)c2)c1=O [Compound I-11, 3-{3-[4-(2,6-dipropionyloxyisonicotinoyloxy)-5-chloro-2-pyridyloxycarbonyl]benzoyl}-1-ethoxymethyl-5-fluorouracil]
- IC50 ([1]; 5-FU as substrate, Test Example 4, read-out: IC50 of DPD activity inhibition): ~500 nM
- DPD Inhibitory Activity: Activity ([1]; Conc. 0.2 μM, Table 5): 0.285 nmol/mL/min
- inhibition at 0.2 µM ([1]; Conc. 0.2 μM, Table 5, read-out: DPD Inhibitory Activity: Inhibition): 56.8%
- DPD Inhibitory Activity: Activity ([1]; Conc. 2 μM, Table 5): 0.216 nmol/mL/min
- inhibition at 2 µM ([1]; Conc. 2 μM, Table 5, read-out: DPD Inhibitory Activity: Inhibition): 67.2%
- DPD Inhibitory Activity: Activity ([1]; Conc. 20 μM, Table 5): 0.081 nmol/mL/min
- inhibition at 20 µM ([1]; Conc. 20 μM, Table 5): 87.7%
- DPD Inhibitory Activity: Activity [2]: 0.705 nmol/mL/min
- inhibition at 0.02 µM [2]: 0%
